Experimental data taken from PubChem BioAssay AID1963847 (Molecular Pharmacology Branch, DTP, NCI, 2024).

System: 415267-285-R-J2-PDC complex spheroid viability
Test: Anticancer human tumor 415267-285-R-J2-PDC patient-derived breast carcinoma cell line growth inhibition [POLQ]
Conditions: for IC50: curve of first compound; for viability, T/C: stronger effect = lower value
Description: Multicellular complex tumor spheroid response to Polymerase (POL) inhibitors (novobiocin, ART-558, RP6685) in combination with a variety of drugs and investigational agents in selected tumor cell lines
The POL inhibitors (novobiocin, ART-558, and RP6685) were evaluated both individually and in combination with standard of care and investigational anticancer small molecules within a complex spheroid model of solid tumors. . Complex spheroids include a stromal component modeled by human endothelial cells (HUVEC) and fibroblasts modeled by human mesenchymal stem cells (MSCs). The concentration ranges selected for each drug and investigational agent were based upon clinically achievable concentrations if the clinical Cmax of the agent was known.
Compounds. The drugs and investigational agents: novobiocin (NSC847541), ART-558 (NSC835418), RP-6685 (NSC848927), peposertib (NSC802822), ceralasertib (NSC780249), elimusertib (NSC800525), camonsertib (NSC841442), AZD-1390 (NSC803789), olaparib (NSC753686), talazoparib (NSC767125), rucaparib (NSC756644), sotorasib (NSC818433), MRTX-1133 (NSC836407), SN-38 (NSC673596), topotecan (NSC609699), epotoside (NSC141540), doxorubicin (NSC123127), gemcitabine (NSC613327), 5-fluorouracil (NSC19893), paclitaxel (NSC125973), vemurafenib (NSC761431), MSA-2 (NSC828583), SN-011 (NSC837082), adavosertib (NSC754352), prexasertib (NSC758257), carboplatin (NSC241240) and oxaliplatin (NSC266046), were obtained from the National Cancer Institute (NCI) Developmental Therapeutics Program Chemical Repository (21). The FDA-approved anticancer drug set is available from the Developmental Therapeutics Program at https://dtp.cancer.gov/organization/dscb/obtaining/. […] The stock solutions were prepared in dimethyl sulfoxide (DMSO, Sigma-Aldrich, St. Louis, MO, cat. D2650), except for the platinum compounds which were prepared in saline (Quality Biological, Gaithersburg, MD, cat. 114-055-101), at 800-fold the tested concentration and stored at -70 degrees C prior to their use. All drugs and investigational agents were tested over a range starting from a high concentration at or near the clinical Cmax and decreasing in half-log increments. If the clinical Cmax for an agent had not been determined, the highest concentration tested was 10 microM, except for SN-38, which was tested at a high concentration of 1 microM.
Cell Culture. All cells were maintained in an incubator at 37 degrees C and 5% CO2 with 95% humidity. The PDC lines were cultured according to standard operating procedures established by the NCI PDMR (https://pdmr.cancer.gov). Table 3 of the manuscript, lists the cell lines along with the number of the three cell types plated to form the mct-spheroids and media for tumor cell growth. After thawing, all PDC lines, except 997537-175-T-J1-PDC and 415267-285-R-J2-PDC, were cultured in Matrigel-coated flasks prepared with a working solution of 1X Ham's F-12 nutrient mix, without supplementation (Thermo Fisher Scientific, cat. 11765054), 100 U/mL penicillin-streptomycin (Thermo Fisher Scientific, cat. 15140122), and 2.5% Matrigel (Corning Inc., Corning, NY, cat. 354248) for the first three passages. The two PDC lines 997537-175-T-J1-PDC and 415267-285-R-J2-PDC were cultured on uncoated flasks. The 857933-349-R-J2-PDC line was cultured in 6C/Colon 1B media containing advanced DMEM/F-12 (Thermo Fisher Scientific, cat. 12634028), 10 mM HEPES (Thermo Fisher Scientific, cat. 15630080), 1X GlutaMAX supplement (Thermo Fisher Scientific, cat. 35050061), 0.1 mg/mL primocin (InvivoGen, San Diego, CA, cat. ant-pm-2), 10% defined fetal bovine serum, heat inactivated (HyClone Laboratories Inc., Logan, UT, cat. SH30070.03HI), 50% L-WRN conditioned media (ATCC, cat. CRL-3276), 1.25 mM N-Acetyl-L-cysteine (Sigma-Aldrich, cat. A9165), 10 mM nicotinamide (Sigma-Aldrich, cat. N0636), 1X B-27 supplement (Thermo Fisher Scientific, cat. 17504044), 1X N-2 supplement (Thermo Fisher Scientific, cat. […]

[1] = second compound 0.0316 µM, first compound 0.0316 µM
[2] = second compound 0.0316 µM, first compound 0.1 µM
[3] = second compound 0.0316 µM, first compound 0.316 µM
[4] = second compound 0.0316 µM, first compound 1 µM
[5] = second compound 0.1 µM, first compound 0.0316 µM
[6] = second compound 0.1 µM, first compound 0.1 µM
[7] = second compound 0.1 µM, first compound 0.316 µM
[8] = second compound 0.1 µM, first compound 1 µM
[9] = second compound 0.316 µM, first compound 0.0316 µM
[10] = second compound 0.316 µM, first compound 0.1 µM
[11] = second compound 0.316 µM, first compound 0.316 µM
[12] = second compound 0.316 µM, first compound 1 µM
[13] = second compound 1 µM, first compound 0.0316 µM
[14] = second compound 1 µM, first compound 0.1 µM
[15] = second compound 1 µM, first compound 0.316 µM
[16] = second compound 1 µM, first compound 1 µM
[17] = second compound 3.16 µM, first compound 0.0316 µM
[18] = second compound 3.16 µM, first compound 0.1 µM
[19] = second compound 3.16 µM, first compound 0.316 µM
[20] = second compound 3.16 µM, first compound 1 µM
[21] = second compound 10 µM, first compound 0.0316 µM
[22] = second compound 10 µM, first compound 0.1 µM
[23] = second compound 10 µM, first compound 0.316 µM
[24] = second compound 10 µM, first compound 1 µM
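Also: spheroids exposed to compounds for one week before readout.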
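For viability, T/C in this document: luminescence used as stand-in measure of viable cells; 100% = DMSO vehicle control viability.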

## COc1cccc(OCCCN)c1-c1cc(Nc2cnc(C#N)cn2)n[nH]1 + Nc1ccc(C#CCN(C(=O)Cc2ncc(C(F)(F)F)cc2C(F)(F)F)c2ccc(F)cc2)nn1
Second compound 0.0316 µM
  IC50: 7.16 nM
Second compound 0.1 µM
  IC50: 6.19 nM
Second compound 0.316 µM
  IC50: 6.72 nM
Second compound 1 µM
  IC50: 5.96 nM
Second compound 3.16 µM
  IC50: 5.77 nM
Second compound 10 µM
  IC50: 5.9 nM
Second compound 0.0316 µM, first compound 0.00316 µM
  viability, T/C: 99%
Second compound 0.0316 µM, first compound 0.01 µM
  viability, T/C: 29.9%
[1]
  viability, T/C: 6.2%
[2]
  viability, T/C: 5.95%
[3]
  viability, T/C: 4.32%
[4]
  viability, T/C: 4.9%
Second compound 0.1 µM, first compound 0.00316 µM
  viability, T/C: 94.9%
Second compound 0.1 µM, first compound 0.01 µM
  viability, T/C: 18%
[5]
  viability, T/C: 5.46%
[6]
  viability, T/C: 5.78%
[7]
  viability, T/C: 5.23%
[8]
  viability, T/C: 3.98%
Second compound 0.316 µM, first compound 0.00316 µM
  viability, T/C: 119%
Second compound 0.316 µM, first compound 0.01 µM
  viability, T/C: 13.8%
[9]
  viability, T/C: 5.29%
[10]
  viability, T/C: 4.56%
[11]
  viability, T/C: 4.96%
[12]
  viability, T/C: 4.07%
Second compound 1 µM, first compound 0.00316 µM
  viability, T/C: 101%
Second compound 1 µM, first compound 0.01 µM
  viability, T/C: 8.35%
[13]
  viability, T/C: 5.83%
[14]
  viability, T/C: 5.25%
[15]
  viability, T/C: 5.41%
[16]
  viability, T/C: 4.11%
Second compound 3.16 µM, first compound 0.00316 µM
  viability, T/C: 94.9%
Second compound 3.16 µM, first compound 0.01 µM
  viability, T/C: 9.02%
[17]
  viability, T/C: 5.49%
[18]
  viability, T/C: 5.19%
[19]
  viability, T/C: 6.6%
[20]
  viability, T/C: 4.85%
Second compound 10 µM, first compound 0.00316 µM
  viability, T/C: 100%
Second compound 10 µM, first compound 0.01 µM
  viability, T/C: 7.29%
[21]
  viability, T/C: 6.73%
[22]
  viability, T/C: 5.13%
[23]
  viability, T/C: 4.64%
[24]
  viability, T/C: 4.87%

## C=CC(=O)N1CCN(c2nc(=O)n(-c3c(C)ccnc3C(C)C)c3nc(-c4c(O)cccc4F)c(F)cc23)C(C)C1 (centres undefined) + COC1C(OC(N)=O)C(O)C(Oc2ccc3c(O)c(NC(=O)c4ccc(O)c(CC=C(C)C)c4)c(=O)oc3c2C)OC1(C)C
Second compound 0.0316 µM
  IC50: > 10000 nM
Second compound 0.1 µM
  IC50: > 10000 nM
Second compound 0.316 µM
  IC50: > 10000 nM
Second compound 1 µM
  IC50: > 10000 nM
Second compound 3.16 µM
  IC50: > 10000 nM
Second compound 10 µM
  IC50: > 10000 nM
[1]
  viability, T/C: 103%
[2]
  viability, T/C: 93.4%
[3]
  viability, T/C: 105%
[4]
  viability, T/C: 92.6%
Second compound 0.0316 µM, first compound 3.16 µM
  viability, T/C: 112%
Second compound 0.0316 µM, first compound 10 µM
  viability, T/C: 92.2%
[5]
  viability, T/C: 85.4%
[6]
  viability, T/C: 97.5%
[7]
  viability, T/C: 98.5%
[8]
  viability, T/C: 93%
Second compound 0.1 µM, first compound 3.16 µM
  viability, T/C: 108%
Second compound 0.1 µM, first compound 10 µM
  viability, T/C: 103%
[9]
  viability, T/C: 103%
[10]
  viability, T/C: 89.8%
[11]
  viability, T/C: 82.8%
[12]
  viability, T/C: 107%
Second compound 0.316 µM, first compound 3.16 µM
  viability, T/C: 112%
Second compound 0.316 µM, first compound 10 µM
  viability, T/C: 93%
[13]
  viability, T/C: 98.6%
[14]
  viability, T/C: 94.5%
[15]
  viability, T/C: 93.9%
[16]
  viability, T/C: 97%
Second compound 1 µM, first compound 3.16 µM
  viability, T/C: 97.5%
Second compound 1 µM, first compound 10 µM
  viability, T/C: 98.2%
[17]
  viability, T/C: 101%
[18]
  viability, T/C: 102%
[19]
  viability, T/C: 97.2%
[20]
  viability, T/C: 101%
Second compound 3.16 µM, first compound 3.16 µM
  viability, T/C: 101%
Second compound 3.16 µM, first compound 10 µM
  viability, T/C: 95.9%
[21]
  viability, T/C: 95.1%
[22]
  viability, T/C: 95.8%
[23]
  viability, T/C: 112%
[24]
  viability, T/C: 109%
Second compound 10 µM, first compound 3.16 µM
  viability, T/C: 90.6%
Second compound 10 µM, first compound 10 µM
  viability, T/C: 86.9%
